Reference: patent US8759342B2, “Benzo[1,4]oxazin-3-one, benzo[1,4]thiazin-3-one and quinolin-2-one urotensin II receptor antagonists” (Janssen Pharmaceutica NV, priority 2006, dated 2014)

Molecular target: T1, rat GPR14 (U-II receptor) (Rattus norvegicus, UniProt P49684)
T1 construct: expressed in transfected cells
T1 sequence (P49684 1-386): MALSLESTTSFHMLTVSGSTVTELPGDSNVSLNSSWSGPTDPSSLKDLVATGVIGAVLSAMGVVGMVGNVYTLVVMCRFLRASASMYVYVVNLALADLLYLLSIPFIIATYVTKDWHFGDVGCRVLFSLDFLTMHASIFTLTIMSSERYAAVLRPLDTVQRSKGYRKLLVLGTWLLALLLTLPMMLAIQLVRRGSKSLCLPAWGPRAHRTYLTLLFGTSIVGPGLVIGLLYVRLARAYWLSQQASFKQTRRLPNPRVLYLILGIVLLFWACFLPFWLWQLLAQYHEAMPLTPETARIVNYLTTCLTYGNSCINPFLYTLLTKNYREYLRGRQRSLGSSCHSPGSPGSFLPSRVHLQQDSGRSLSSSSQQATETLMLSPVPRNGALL
Experiment: Calcium flux assay (FLIPR)
Assay type: cell-based
Details: Inhibition of acetyl-cyclic[Cys-Phe-Trp-Lys-(2-Nal)-Cys]-NH2 (1 nM) induced Ca2+ mobilization (FLIPR) in CHO cells transfected with rat UII receptor; 5 min incubation
Description: To derive these cells, the complete coding sequence of rat […] was amplified by nested PCR from rat heart marathon-Ready cDNA. […] The PCR products were cloned into pcDNA3 (Invitrogen) digested with EcoR I and Xba I. Clones containing rat U-II receptor were verified by complete sequencing of the U-II receptor insert to ensure a lack of PCR-introduced errors. The constructed vector was transfected into CHO cells by using lipofectamine (GIBCO BRL). CHO cells with high expression of rat U-II receptor were selected and established as stable cell lines by using G418. CHO cells were seeded at 25,000 cells per well into 96-well, black-wall, clear-bottom microtiter plates 24 hrs before assay. Cells in culture media (DMEM/F12 containing 15 mM HEPES, L-glutamine, pyridoxine hydrochloride; 10% fetal bovine serum; 1 mg/mL G418 sulfate; antibiotic-antimycotic; pH 7.4) were loaded with proprietary dye, from the FLIPR Calcium Assay Kit (Molecular Devices), prepared in assay buffer (Hanks Balanced Salts Solution, 20 mM HEPES, 0.1% BSA, 2.5 mM probenecid, pH 7.4), and incubated for 1 hr at 37° C. Calcium mobilization determinations were performed at room temperature (23° C.).

Compound | IC50 [µM]
CC(CNC(=O)c1ccccc1C1CCN(CCN2C(=O)COc3ccccc32)CC1)c1ccccc1 (stereo not shown) [Cpd 28, 2-{1-[2-(3-oxo-2,3-dihydro-benzo[1,4]oxazin-4-yl)-ethyl]-piperidin-4-yl}-N-(2-phenyl-propyl)-benzamide] | 9
O=C(NCCc1ccncc1)c1ccccc1C1CCN(CCN2C(=O)COc3ccccc32)CC1 [Cpd 45, 2-{1-[2-(3-oxo-2,3-dihydro-benzo[1,4]oxazin-4-yl)-ethyl]-piperidin-4-yl}-N-(2-pyridin-4-yl-ethyl)-benzamide] | 16
O=C(NCc1ccccn1)c1ccccc1C1CCN(CCN2C(=O)COc3ccccc32)CC1 [Cpd 41, 2-{1-[2-(3-oxo-2,3-dihydro-benzo[1,4]oxazin-4-yl)-ethyl]-piperidin-4-yl}-N-pyridin-2-ylmethyl-benzamide] | 21
O=C1COc2ccccc2N1CCN1C2CCC1CC(c1ccccc1)C2 (stereo not shown) [Cpd 101, 4-[2-(3-phenyl-8-aza-bicyclo[3.2.1]oct-8-yl)-ethyl]-4H-benzo[1,4]oxazin-3-one] | 19
CC1C=C(c2ccc(Cl)cc2C(=O)NCCCCCNC(=O)OC(C)(C)C)CC(C)N1CCN1C(=O)COc2ccccc21 (stereo not shown) [Cpd 102, [5-(5-chloro-2-{2,6-dimethyl-1-[2-(3-oxo-2,3-dihydro-benzo[1,4]oxazin-4-yl)-ethyl]-1,2,3,6-tetrahydro-pyridin-4-yl}-benzoylamino)pentyl]-carbamic acid tert-butyl ester] | 7.6
Cc1ccc(C2CCN(CCN3C(=O)COc4ccccc43)CC2)cc1 [Cpd 90, 4-[2-(4-p-tolyl-piperidin-1-yl)-ethyl]-4H-benzo[1,4]oxazin-3-one] | 15
O=C(NCC1CC1)c1ccccc1C1CCN(CCN2C(=O)COc3ccccc32)CC1 [Cpd 24, N-cyclopropylmethyl-2-{1-[2-(3-oxo-2,3-dihydro-benzo[1,4]oxazin-4-yl)-ethyl]-piperidin-4-yl}-benzamide] | 12
Cc1ccccc1C1CCN(CCN2C(=O)COc3ccccc32)CC1 [Cpd 91, 4-[2-(4-o-tolyl-piperidin-1-yl)-ethyl]-4H-benzo[1,4]oxazin-3-one] | 21
CCOCCCNC(=O)c1ccccc1C1CCN(CCN2C(=O)COc3ccccc32)CC1 [Cpd 38, N-(3-ethoxy-propyl)-2-{1-[2-(3-oxo-2,3-dihydro-benzo[1,4]oxazin-4-yl)-ethyl]-piperidin-4-yl}-benzamide] | 23
CN(CCc1ccccc1)C(=O)c1ccccc1C1CCN(CCN2C(=O)COc3ccccc32)CC1 [Cpd 18, N-methyl-2-{1-[2-(3-oxo-2,3-dihydro-benzo[1,4]oxazin-4-yl)-ethyl]-piperidin-4-yl}-N-phenethyl-benzamide] | 15
CCCNC(=O)c1ccccc1C1CCN(CCN2C(=O)COc3ccccc32)CC1 [Cpd 29, 2-{1-[2-(3-oxo-2,3-dihydro-benzo[1,4]oxazin-4-yl)-ethyl]-piperidin-4-yl}-N-propyl-benzamide] | 20
O=C(NCCCO)c1ccccc1C1CCN(CCN2C(=O)COc3ccccc32)CC1 [Cpd 39, N-(3-hydroxy-propyl)-2-{1-[2-(3-oxo-2,3-dihydro-benzo[1,4]oxazin-4-yl)-ethyl]-piperidin-4-yl}-benzamide] | 32
O=C1COc2ccccc2N1CCN1CCC(C(=O)NCCc2ccccc2)(c2ccc(Cl)cc2)CC1 [Cpd 109, 4-(4-chloro-phenyl)-1-[2-(3-oxo-2,3-dihydro-benzo[1,4]oxazin-4-yl)-ethyl]-piperidine-4-carboxylic acid phenethyl-amide] | 5
O=C(NCc1cccnc1)c1ccccc1C1CCN(CCN2C(=O)COc3ccccc32)CC1 [Cpd 43, 2-{1-[2-(3-oxo-2,3-dihydro-benzo[1,4]oxazin-4-yl)-ethyl]-piperidin-4-yl}-N-pyridin-3-ylmethyl-benzamide] | 18
O=C1COc2ccccc2N1CCN1CCC(c2ccccc2)CC1 [Cpd 86, 4-[2-(4-phenyl-piperidin-1-yl)-ethyl]-4H-benzo[1,4]oxazin-3-one] | 24
O=C(NCCc1cc(F)ccc1F)c1ccccc1C1CCN(CCN2C(=O)COc3ccccc32)CC1 [Cpd 22, N-[2-(2,5-difluoro-phenyl)-ethyl]-2-{1-[2-(3-oxo-2,3-dihydro-benzo[1,4]oxazin-4-yl)-ethyl]-piperidin-4-yl}-benzamide] | 13

Compound | IC50 [µM]
O=C(NCCc1cccs1)c1ccccc1C1CCN(CCN2C(=O)COc3ccccc32)CC1 [Cpd 47, 2-{1-[2-(3-oxo-2,3-dihydro-benzo[1,4]oxazin-4-yl)-ethyl]-piperidin-4-yl}-N-(2-thiophen-2-yl-ethyl)-benzamide] | 7
O=C(NCCNC(=O)c1ccccc1C1CCN(CCN2C(=O)COc3ccccc32)CC1)Nc1ccc2ccccc2c1 [Cpd 54, N-[2-(3-naphthalen-2-yl-ureido)-ethyl]-2-{1-[2-(3-oxo-2,3-dihydro-benzo[1,4]oxazin-4-yl)-ethyl]-piperidin-4-yl}-benzamide] | 7
O=C(NCCc1cccc(F)c1F)c1ccccc1C1CCN(CCN2C(=O)COc3ccccc32)CC1 [Cpd 23, N-[2-(2,3-difluoro-phenyl)-ethyl]-2-{1-[2-(3-oxo-2,3-dihydro-benzo[1,4]oxazin-4-yl)-ethyl]-piperidin-4-yl}-benzamide] | 7
O=C(NCc1cccs1)c1ccccc1C1CCN(CCN2C(=O)COc3ccccc32)CC1 [Cpd 46, 2-{1-[2-(3-oxo-2,3-dihydro-benzo[1,4]oxazin-4-yl)-ethyl]-piperidin-4-yl}-N-thiophen-2-ylmethyl-benzamide] | 6
CN(C)C(=O)c1cc(Cl)ccc1C1CCN(CCN2C(=O)COc3ccccc32)CC1 [Cpd 59, 5-chloro-N,N-dimethyl-2-{1-[2-(3-oxo-2,3-dihydro-benzo[1,4]oxazin-4-yl)-ethyl]-piperidin-4-yl}-benzamide] | 10
COc1ccc(OC)c(CCNC(=O)c2ccccc2C2CCN(CCN3C(=O)COc4ccccc43)CC2)c1 [Cpd 13, N-[2-(2,5-dimethoxy-phenyl)-ethyl]-2-{1-[2-(3-oxo-2,3-dihydro-benzo[1,4]oxazin-4-yl)-ethyl]-piperidin-4-yl}-benzamide] | 8
O=C1COc2ccccc2N1CCN1CCC(c2cccc(Cl)c2)CC1 [Cpd 92, 4-{2-[4-(3-chloro-phenyl)-piperidin-1-yl]-ethyl}-4H-benzo[1,4]oxazin-3-one] | 20
O=C(NCCc1ccc(Cl)cc1Cl)c1ccccc1C1CCN(CCN2C(=O)COc3ccccc32)CC1 [Cpd 7, N-[2-(2,4-dichloro-phenyl)-ethyl]-2-{1-[2-(3-oxo-2,3-dihydro-benzo[1,4]oxazin-4-yl)-ethyl]-piperidin-4-yl}-benzamide] | 19
O=C1COc2ccccc2N1CCN1CCC(C(=O)NCCc2ccccc2)(c2ccccc2)CC1 [Cpd 105, 1-[2-(3-oxo-2,3-dihydro-benzo[1,4]oxazin-4-yl)-ethyl]-4-phenyl-piperidine-4-carboxylic acid phenethyl-amide] | 7
CN(Cc1ccccc1)C(=O)c1ccccc1C1CCN(CCN2C(=O)COc3ccccc32)CC1 [Cpd 5, N-benzyl-N-methyl-2-{1-[2-(3-oxo-2,3-dihydro-benzo[1,4]oxazin-4-yl)-ethyl]-piperidin-4-yl}-benzamide] | 11
CC(C)(C)OC(=O)N1CCN(CCNC(=O)c2ccccc2C2CC3CCC(C2)N3CCN2C(=O)COc3ccccc32)CC1 (stereo not shown) [Cpd 96, 4-[2-(2-{8-[2-(3-oxo-2,3-dihydro-benzo[1,4]oxazin-4-yl)-ethyl]-8-aza-bicyclo[3.2.1]oct-3-yl}-benzoylamino)-ethyl]-piperazine-1-carboxylic acid tert-butyl ester] | 3.5
COc1ccc(C2CCN(CCN3C(=O)COc4ccccc43)CC2)cc1 [Cpd 87, 4-{2-[4-(4-methoxy-phenyl)-piperidin-1-yl]-ethyl}-4H-benzo[1,4]oxazin-3-one] | 47
CN(CCc1ccccc1)C(=O)C1(c2ccccc2)CCN(CCN2C(=O)COc3ccccc32)CC1 [Cpd 106, 1-[2-(3-oxo-2,3-dihydro-benzo[1,4]oxazin-4-yl)-ethyl]-4-phenyl-piperidine-4-carboxylic acid methyl-phenethyl-amide] | 14
O=C(NCCc1cc(F)cc(F)c1)c1ccccc1C1CCN(CCN2C(=O)COc3ccccc32)CC1 [Cpd 21, N-[2-(3,5-difluoro-phenyl)-ethyl]-2-{1-[2-(3-oxo-2,3-dihydro-benzo[1,4]oxazin-4-yl)-ethyl]-piperidin-4-yl}-benzamide] | 9
O=C1COc2ccccc2N1CCN1CCC(C(=O)NCCCc2ccccc2)(c2ccccc2)CC1 [Cpd 107, 1-[2-(3-oxo-2,3-dihydro-benzo[1,4]oxazin-4-yl)-ethyl]-4-phenyl-piperidine-4-carboxylic acid (3-phenyl-propyl)-amide] | 9.1
